Laboratory results reported in PubChem BioAssay (NCI).
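Tested at 5 concentrations; 48 h exposure; 96-well plates; endpoints linearly interpolated, else capped at highest concentration. The concentration for 50% growth inhibition is given as GI50. TGI denotes the concentration required for complete inhibition of growth.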

Tested on: MDA-MB-231 breast
Assay: growth of human tumour cells (NCI), 48 h

Structure (SMILES) | TGI | GI50
COc1cc2c(c(OC)c1OC)-c1ccc(SC)c(=O)cc1C(NC=O)CC2 (configuration not stated) | > 4.64 µM | –
CCSc1ncnc2c1ncn2C1OC(CO)C(O)C1O (configuration not stated) | > 100 µM | 0.745 µM
O=C(CSc1nc2ccccc2nc1-c1ccccc1)Nc1ccc(F)cc1 | > 100 µM | 34.3 µM
CC[C@H]1[C@@H]2C=C[C@@H]3[C@H]4C/C=C\C(=O)NCCC[C@@H]5NC(=O)/C(=C(O)/C=C/[C@@H]4C[C@@H]3[C@H]2C[C@H]1C)C5=O | 2.66 µM | 1.3 µM
CN1C(=O)N(C)C2C1NN=c1s/c(=C\c3ccc(Cl)cc3Cl)c(=O)n12 (configuration not stated) | 19.6 µM | 0.479 µM
Cc1ccc(NC(=O)CC2CC2)cc1-c1ccc(C(=O)NCC2CC2)cc1 | > 25 µM | > 25 µM
CNCC#Cc1c(F)ccc2c1/C(=C/c1[nH]ccc1OC)C(=O)N2 | 2.18 µM | 0.416 µM
COc1cc(-n2cc(-c3ccc(F)cc3)[nH]c2=O)cc(OC)c1OC | > 100 µM | 49.5 µM
Cn1cc(C2=C(c3cn(CCCCO)c4ccccc34)C(=O)NC2=O)c2ccccc21 | > 25 µM | 17.2 µM

Tested on: UACC-257 melanoma
Assay: growth of human tumour cells (NCI), 48 h

Structure (SMILES) | GI50 | TGI
CCOC(=O)Nc1ccc(-c2nc(-c3cccc(OCCN4CCOCC4)c3)c(-c3ccnc(Br)c3)[nH]2)cc1 | 2.21 µM | 5.24 µM
COc1cc(Cn2c(-c3ccccc3)c(Cl)c3c2-c2oncc2CC3)cc(OC)c1 | 39.3 µM | > 100 µM
COc1ccc(-c2nn(-c3ccc(NC(=O)c4ccc(Cl)c(Cl)c4)cc3)cc2-c2ccncc2)cc1Cl | > 34.5 µM | > 50 µM
O=C(CC1(O)C(=O)N(Cc2ccccc2)c2ccc(F)cc21)c1ccc(C(=O)NCC2CCC3(CC2)OOC2(CCCCC2)OO3)cc1 (configuration not stated) | 4.78 µM | 31.7 µM
COc1cc2c3c(n(C)c(=O)c2cc1OC)-c1cc2c(cc1/C3=C\CN)OCO2 | 1.44 µM | 20.4 µM
COc1ccc(/C=C2/N=C(c3ccccc3)N(c3c(C)n(C)n(-c4ccccc4)c3=O)C2=O)cc1OC | > 100 µM | > 100 µM
C[C@@H]1CC[C@@H]2[C@@H]1[C@H](OC(=O)/C=C/c1ccccc1)[C@]1(C3CCCCC3)C[C@@H](OC(=O)CO)[C@@]2(C)O1 | 5.1 µM | 18.7 µM
CCCN1C(=O)N(CCC)C2C1NC(=S)N2/N=C/C=C/c1ccccc1OC (configuration not stated) | 20.3 µM | > 100 µM
CCn1c2ccccc2c2cc(NC(=O)Nc3ccc([N+](=O)[O-])cc3C)ccc21 | 16.6 µM | 68.7 µM
COc1cc2c(c(OC)c1OC)-c1ccc(SC)c(=O)cc1C(NC=O)CC2 (configuration not stated) | – | > 84.8 µM
CCSc1ncnc2c1ncn2C1OC(CO)C(O)C1O (configuration not stated) | > 19.8 µM | > 100 µM
O=C(CSc1nc2ccccc2nc1-c1ccccc1)Nc1ccc(F)cc1 | 92.8 µM | > 100 µM
CC[C@H]1[C@@H]2C=C[C@@H]3[C@H]4C/C=C\C(=O)NCCC[C@@H]5NC(=O)/C(=C(O)/C=C/[C@@H]4C[C@@H]3[C@H]2C[C@H]1C)C5=O | 1.71 µM | 3.49 µM
CN1C(=O)N(C)C2C1NN=c1s/c(=C\c3ccc(Cl)cc3Cl)c(=O)n12 (configuration not stated) | 12.2 µM | > 100 µM
Cc1ccc(NC(=O)CC2CC2)cc1-c1ccc(C(=O)NCC2CC2)cc1 | > 25 µM | > 25 µM
CNCC#Cc1c(F)ccc2c1/C(=C/c1[nH]ccc1OC)C(=O)N2 | 0.619 µM | 2.91 µM
COc1cc(-n2cc(-c3ccc(F)cc3)[nH]c2=O)cc(OC)c1OC | > 100 µM | > 100 µM
Cn1cc(C2=C(c3cn(CCCCO)c4ccccc34)C(=O)NC2=O)c2ccccc21 | 19.8 µM | > 25 µM

Tested on: SK-MEL-5 melanoma
Assay: growth of human tumour cells (NCI), 48 h

Structure (SMILES) | GI50 | TGI
CCOC(=O)Nc1ccc(-c2nc(-c3cccc(OCCN4CCOCC4)c3)c(-c3ccnc(Br)c3)[nH]2)cc1 | 1.74 µM | 3.15 µM
COc1cc(Cn2c(-c3ccccc3)c(Cl)c3c2-c2oncc2CC3)cc(OC)c1 | 5.5 µM | 19.6 µM
COc1ccc(-c2nn(-c3ccc(NC(=O)c4ccc(Cl)c(Cl)c4)cc3)cc2-c2ccncc2)cc1Cl | 1.91 µM | > 50 µM
O=C(CC1(O)C(=O)N(Cc2ccccc2)c2ccc(F)cc21)c1ccc(C(=O)NCC2CCC3(CC2)OOC2(CCCCC2)OO3)cc1 (configuration not stated) | 1.54 µM | 2.96 µM
COc1cc2c3c(n(C)c(=O)c2cc1OC)-c1cc2c(cc1/C3=C\CN)OCO2 | 0.296 µM | 2.32 µM
COc1ccc(/C=C2/N=C(c3ccccc3)N(c3c(C)n(C)n(-c4ccccc4)c3=O)C2=O)cc1OC | 51.7 µM | > 100 µM
C[C@@H]1CC[C@@H]2[C@@H]1[C@H](OC(=O)/C=C/c1ccccc1)[C@]1(C3CCCCC3)C[C@@H](OC(=O)CO)[C@@]2(C)O1 | 2.36 µM | 6.11 µM
CCCN1C(=O)N(CCC)C2C1NC(=S)N2/N=C/C=C/c1ccccc1OC (configuration not stated) | 0.516 µM | 15.9 µM
CCn1c2ccccc2c2cc(NC(=O)Nc3ccc([N+](=O)[O-])cc3C)ccc21 | 14.3 µM | > 100 µM
COc1cc2c(c(OC)c1OC)-c1ccc(SC)c(=O)cc1C(NC=O)CC2 (configuration not stated) | – | < 0.01 µM
CCSc1ncnc2c1ncn2C1OC(CO)C(O)C1O (configuration not stated) | 2.83 µM | > 100 µM
O=C(CSc1nc2ccccc2nc1-c1ccccc1)Nc1ccc(F)cc1 | 16.5 µM | 54.8 µM
CC[C@H]1[C@@H]2C=C[C@@H]3[C@H]4C/C=C\C(=O)NCCC[C@@H]5NC(=O)/C(=C(O)/C=C/[C@@H]4C[C@@H]3[C@H]2C[C@H]1C)C5=O | 0.9 µM | 2.2 µM
CN1C(=O)N(C)C2C1NN=c1s/c(=C\c3ccc(Cl)cc3Cl)c(=O)n12 (configuration not stated) | 0.167 µM | 1.78 µM
Cc1ccc(NC(=O)CC2CC2)cc1-c1ccc(C(=O)NCC2CC2)cc1 | > 17.5 µM | > 25 µM
CNCC#Cc1c(F)ccc2c1/C(=C/c1[nH]ccc1OC)C(=O)N2 | 0.21 µM | 1.42 µM
COc1cc(-n2cc(-c3ccc(F)cc3)[nH]c2=O)cc(OC)c1OC | > 100 µM | > 100 µM
Cn1cc(C2=C(c3cn(CCCCO)c4ccccc34)C(=O)NC2=O)c2ccccc21 | 6.26 µM | > 20.5 µM
